Data as given in patent publication US20020148006A1, “Transgenic plants with modified sterol compositions” (Asgrow Seed Company, L.L.C., priority 1996, published 2002).
Like-named read-outs stand apart in the source and are kept apart here.

What was measured:
[1] = system: (S)-adenosyl-L-methionine: Δ^24-sterol methyl transferase (SMT); test: Effect of substrate and transition state analog inhibitors on soluble SMT enzyme from 4-day seedlings; type: biochemical, Zea mays (corn); details: for Ki: soluble SMT, 4-day seedlings, NA = no inhibition
yeast SMT enzyme = biological target: T1, yeast SMT enzyme (Saccharomyces cerevisiae, UniProt P25087); test: Substrate preference / binding of yeast SMT (ERG6 product); type: biochemical
T1 construct: made in house; host or cells: E. coli, pET23a(+)
T1 sequence (P25087 1-383): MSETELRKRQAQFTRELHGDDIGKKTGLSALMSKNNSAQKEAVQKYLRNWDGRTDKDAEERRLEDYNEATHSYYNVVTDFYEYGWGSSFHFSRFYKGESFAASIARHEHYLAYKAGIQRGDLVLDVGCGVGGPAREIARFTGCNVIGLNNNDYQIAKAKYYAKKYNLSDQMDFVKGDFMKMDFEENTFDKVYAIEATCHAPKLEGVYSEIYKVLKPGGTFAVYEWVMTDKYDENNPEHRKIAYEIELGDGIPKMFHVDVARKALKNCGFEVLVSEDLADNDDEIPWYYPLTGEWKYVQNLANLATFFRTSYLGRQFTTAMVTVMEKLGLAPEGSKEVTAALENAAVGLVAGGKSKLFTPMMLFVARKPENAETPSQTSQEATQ
Source text: The cloned ERG6 gene was expressed in E. coli (Venkatramesh et al., 1996).

[2] = system: 3-hydroxy-3-methylglutaryl-coenzyme A reductase (HMGR); test: Microsomal HMGR activity during seedling development; type: biochemical, corn; parameters: dose or concentration left out as unconfirmed
[3] = system: (S)-adenosyl-L-methionine: Δ^24-sterol methyl transferase (SMT); test: Sterol specificity (substrate methylation) of SMT enzyme from 4-day corn seedlings; type: biochemical, Zea mays (corn); details: for % Activity, relative to cycloartenol methylation: soluble SMT; for Enzyme Activity: soluble SMT from corn seedlings, BG = background
Procedure: The sterol specificity of the microsome-bound and soluble SMT enzyme from 4-day corn seedlings was determined in order to elucidate the enzymatic basis for the plant sterols identified in Example 1.

Arabidopsis SMT = biological target: T2, Arabidopsis SMT (Arabidopsis thaliana, UniProt Q39227); test: Sterol transformation by recombinant Arabidopsis SMT expressed in E. coli; type: biochemical; details: recombinant fusion protein
T2 construct: The full-length ORF containing a Nde 1 site at the start; His-tag; made in house; host or cells: E. coli, pET23a(+)
T2 sequence (Q39227 1-361): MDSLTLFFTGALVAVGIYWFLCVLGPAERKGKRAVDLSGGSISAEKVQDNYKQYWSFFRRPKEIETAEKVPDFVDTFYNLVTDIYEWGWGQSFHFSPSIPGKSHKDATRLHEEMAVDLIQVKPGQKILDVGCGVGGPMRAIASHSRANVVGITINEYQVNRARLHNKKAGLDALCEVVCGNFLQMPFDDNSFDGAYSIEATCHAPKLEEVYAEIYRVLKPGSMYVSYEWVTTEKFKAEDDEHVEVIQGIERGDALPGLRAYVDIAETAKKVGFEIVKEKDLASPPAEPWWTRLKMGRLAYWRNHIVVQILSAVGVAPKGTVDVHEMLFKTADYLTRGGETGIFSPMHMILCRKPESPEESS
Source text: The SMT gene from Arabidopsis was cloned and sequenced (FIG. 6; SEQ ID NO:3). This gene containing a His-tag was overexpressed in E. coli (Tong et al., 1997). Arabidopsis SMT was partially purified and characterized in stereochemical detail.
The Arabidopsis SMT gene was amplified by PCR from a cDNA library. The primers used were designed from the full-length cDNA sequence retrieved from the GeneBank (Accession number X89867). The amplified product was the full-length Arabidopsis SMT gene which was sub-cloned into a T/A cloning vector and sequenced. From the sequence data the ORF was identified. A Nde I site was created at the ATG start codon through PCR mediated site-directed mutagenesis. The full-length ORF containing a Nde 1 site at the start and a BamH I site at the stop was cloned into the pET23a(+) vector just as the ERG6 gene was in Example 4. […] In the case of cycloartenol only one product was formed, which is 24(28)-methylene cycloartanol, i.e., SMTI in FIG. 4. Since a single gene product was able to metabolize both sterol substrates it further confirms the enzymological data in Example 3.

Heliothis zea = test: Sterol utilization and metabolism by Heliothis zea reared on artificial diet with sterol supplement; details: for Utilization by H. zea / support of larval growth and development (words): test sterol as sole added dietary sterol; for Sterol composition (as % total sterol): ts: insect tissues, RP-HPLC and GC-MS
Procedure: Heliothis zea (corn earworm) was reared on an artificial diet treated with different sterol supplements to study the relation between sterol structure and utilization in insects. H. zea eggs were used to establish a disease-free stock colony.
The stock insects were reared using sterile procedures on a pinto bean-based diet. Moths were fed 10% sucrose. Cultures were maintained at 27±1° C., at 40±10% relative humidity on a 14:10 light-dark photoperiod and an artificial diet was used to rear the insects on different sterol supplements. The experimental diet contained agar, which is known to contain trace contamination of cholesterol, otherwise the experimental diet was sterol-free.
Sterols were solubilized in acetone. Aliquots of the solutions were added to the sterol-free diet in a mortar, the material mixed thoroughly with the diet, and the organic solvent allowed to evaporate. Sterols were supplied to the medium at 200 ppm (equivalent to 1 mg of sterol per experimental vessel containing one insect).
By day 20, H. zea larva are in the final stage of larval development (sixth instar), after which the insects may pupate. A single neonate larva was placed in an experimental culture vial and allowed to grow for 20 days. The fresh weight, length and instar stage of 20-day larva were recorded.
In some treatments, the larvae were allowed to grow for another 4 days to determine whether they could pupate properly and develop into moth forms.
These fatty alcohols may comigrate with sterols during some forms of chromatography and interfere with sterol quantitation, particularly of cholesterol. Therefore, in order to confirm the identity and amount of cholesterol in the insect an aliquot of the NSF was injected into a HPLC column and the fraction corresponding to cholesterol was examined by GC-MS.

[4] = system: yeast sterol auxotroph, GL-7; test: Growth support of yeast sterol auxotroph GL-7 cultured with test sterols; type: cell-based; details: sterol added to culture medium
Procedure: The phytosterols identified in Example 1 were tested individually for their ability to support growth. In the absence of a plant sterol mutant for such studies the yeast sterol auxotroph, GL-7, was cultured in the presence of sterols identified according to Example 1, above (Li, 1996). This yeast mutant is used as a model system because it can take up sterols from the culture medium and incorporate the test sterol into the membrane lipid bilayer and proliferate. The amount of proliferation of the cells was measured in the presence and absence of hormonal levels of ergosterol, the major yeast sterol.

SMT = test: Substrate preference of SMT in microsome preparations of P. wickerhamii; type: biochemical, Prototheca wickerhamii
Source text: However, the preferred product is not 24(28)-methylene cycloartenol but cyclolaudenol (VII) which is a Δ^25(27)-24-alkyl sterol, a nonutilizable sterol.

[5] = system: serum and/or plasma total cholesterol and low density lipoprotein (LDL) cholesterol; details: comparison of phytosterol structures; cited from earlier work
[6] = read-out: Ki relative to the first methyl transfer
[7] = Table 11, sterol 200 ppm in diet
[8] = Table 11, sterol 200 ppm in diet, 20-day larvae, relative to growth on cholesterol normalized to 100%
[9] = substrates marked (C1), first methyl transfer

Molecule: 26,27-Cyclopropylidene cycloartenol
- Ki [1, 6]: 25 µM
- Effect on the second methyl transfer ([1]; soluble corn SMT): not affecting the second methyl transfer
- Type of inhibition / kinetic pattern ([1]; soluble corn SMT): potent competitive inhibitor
- Substrate preference / binding to yeast SMT (words) (yeast SMT enzyme): failed to bind to the yeast SMT enzyme

Molecule: C=C(CCC(C)C1CCC2(C)C3CCC4C(C)(C)C(O)CCC45CC35CCC12C)C(C)C (centres unmarked) [24(28)-Methylene cycloartanol]
- Ki [1, 6]: 20 µM
- Effect on the second methyl transfer ([1]; soluble corn SMT): failed to inhibit the second methyl transfer
- Effect on HMGR activity [2]: neither sitosterol nor 24(28)-methylene cycloartanol at 100 mM affected HMGR activity
- % Activity, relative to cycloartenol methylation ([3]; (C2), second methyl transfer): 0 (C2) %

Molecule: C=C(CC[C@@H](C)[C@H]1CC[C@H]2C3=CCC4C(C)C(O)CC[C@]4(C)[C@H]3CC[C@]12C)C(C)C (some centres unmarked) [24(28)-Methylenelophenol]
- Transformation by recombinant Arabidopsis SMT (Arabidopsis SMT): active in transforming both cycloartenol and 24(28)-methylene lophenol to their respective alkyl products
- Vmax ([3]; second transmethylation): 1 pmol/min/mg protein
- Enzyme Activity ([3]; substrates marked (C2), second methyl transfer): 3,800 dpm/min
- % Activity, relative to cycloartenol methylation ([3]; (C2), second methyl transfer): 10 (C2) %
- Substrate quality for corn SMT ([3]; soluble enzyme): preferred sterol substrate for the second methylation reaction
- Km ([3]; sterol substrate of the second transmethylation, read-out: Km): 11 µM

Molecule: CC(C)CCC[C@@H](C)[C@H]1CC[C@H]2[C@@H]3CC=C4C[C@@H](O)CC[C@]4(C)[C@H]3CC[C@]12C [Cholesterol]
- Dietary concentration that enhanced the rate of development of larvae (Heliothis zea; % of diet): ≥ 0.015%
- Minimal dietary concentration necessary for larvae to grow and pupate (Heliothis zea; % of the experimental diet): 0.01%
- Instar reached by day 20 (Heliothis zea; [7]): 6
- Growth response (Heliothis zea; [8]): 100%
- Growth response (Heliothis zea; Table 12, cholesterol / 24,25-dihydrolanosterol mixtures in diet): 100
- Instar reached by day 20 (Heliothis zea; Table 12, sterol mixtures): 6
- Sterol composition (as % total sterol): cholesterol (Heliothis zea; Table 12, sterol recovered from insect): (100%)
- Utilization by H. zea / support of larval growth and development (words) (Heliothis zea): supported larval growth to late-sixth instar
- Effect on growth of GL-7 [4]: without affecting the rate of growth of the cells

Molecule: CC(C)=CCC[C@@H](C)[C@H]1CC[C@@]2(C)[C@@H]3CC[C@H]4C(C)(C)[C@@H](O)CC[C@@]45C[C@@]35CC[C@]12C [Cycloartenol, cycloartenol]
- Transformation by recombinant Arabidopsis SMT (Arabidopsis SMT): active in transforming both cycloartenol and 24(28)-methylene lophenol to their respective alkyl products
- Instar reached by day 20 (Heliothis zea; [7]): 3
- Growth response (Heliothis zea; [8]): 5%
- Utilization by H. zea / support of larval growth and development (words) (Heliothis zea): inhibit insect growth
- Utilization by H. zea / support of larval growth and development (words) (Heliothis zea; listed as cycloartenol): could not be met satisfactorily
- Substrate preference of P. wickerhamii SMT (SMT): preferred substrate
- Vmax ([3]; first transmethylation): 4 pmol/min/mg protein
- Substrate quality for corn SMT ([3]; microsome-bound enzyme system): preferred sterol acceptor
- Enzyme Activity [3, 9]: 37,515 dpm/min
- % Activity, relative to cycloartenol methylation ([3]; (C1), first methyl transfer): 100 (C1) %
- Substrate quality for corn SMT ([3]; soluble enzyme): preferred substrate for the first methylation reaction

Molecule: CC(C)[C@@H](C)/C=C/[C@@H](C)[C@H]1CC[C@H]2C3=CC=C4C[C@@H](O)CC[C@]4(C)[C@H]3CC[C@]12C [Ergosterol]
- Sterol composition (as % total sterol): ts (Heliothis zea; Table 11): 36%
- Instar reached by day 20 (Heliothis zea; [7]): 3
- Growth response (Heliothis zea; [8]): 30%
- Effect on growth of GL-7 [4]: sparking growth

Molecule: CCC(CCC(C)C1CCC2C3CC=C4CC(O)CCC4(C)C3CCC12C)C(C)C (centres unmarked) [Sitosterol, sitosterol]
- Ki, second methyl transfer [1]: 100 µM
- Ki ([1]; read-out: Ki relative to the second methyl transfer): 100 µM
- Effect on the first methyl transfer ([1]; soluble corn SMT): without affecting the first methyl transfer
- Sterol composition (as % total sterol): ts (Heliothis zea; Table 11): 20%
- Instar reached by day 20 (Heliothis zea; [7]): 6
- Growth response (Heliothis zea; [8]): 100%
- Utilization by H. zea / support of larval growth and development (words) (Heliothis zea): supported larval growth to late-sixth instar
- Effect on HMGR activity [2]: neither sitosterol nor 24(28)-methylene cycloartanol at 100 mM affected HMGR activity
- Effect on growth of GL-7 [4]: without affecting the rate of growth of the cells

Molecule: CC(C)=CCC[C@@H](C)[C@H]1CC[C@H]2C3=C(CC[C@]12C)[C@@]1(C)CC[C@H](O)C[C@@H]1CC3 [Zymosterol]
- Enzyme Activity [3, 9]: 5,252 dpm/min
- % Activity, relative to cycloartenol methylation ([3]; (C1), first methyl transfer): 14 (C1) %
- Substrate quality for corn SMT ([3]; soluble enzyme): poor sterol substrate of the first methylation reaction
- Substrate preference / binding to yeast SMT (words) (yeast SMT enzyme): preferred sterol substrate of yeast SMT enzyme
- Substrate preference / binding to yeast SMT (words) (yeast SMT enzyme; listed as zymosterol): preferred substrate of the yeast SMT

Molecule: CC[C@H](CC[C@@H](C)[C@H]1CC[C@H]2[C@@H]3CC[C@H]4C[C@@H](O)CC[C@]4(C)[C@H]3CC[C@]12C)C(C)C [sitostanol]
- Reduction of cholesterol levels [5]: more efficient compared to unsaturated compounds such as sitosterol in reducing cholesterol levels
